The record followed here is US20250255847A1, “[…]s: Novel Drugs for Triple Negative Breast Cancer” (SIMMARON RSEARCH INC, priority 2024, published 2025).

The test deals with transcriptional activity of STAT3. Description: STAT3-responsive eGFP reporter assay in MDA-MB-468 cells. Format: cell-based, human. To be noted: for EGF-induced GFP reporter activity: EGF 20 ng/mL, different doses; for IC50: Homo sapiens, MDA-MB-468, read-out: IC50 of STAT3 activation (eGFP reporter); for lowest concentration inhibiting STAT3 activation (eGFP reporter): as low as. As to the method: FIG. 10 illustrates an embodiment of the present invention and illustrates SIM-1 and SIM-2 inhibit expressions of IL6, RANTES, and other STAT3-dependent tumor promoting genes and proteins. (A) A gene array of STAT3 dependent 66 genes (listed in Table 1) was performed in mRNA samples of MDA-MB-468 cells. Realtime PCR plate coated with 66 primer sets of STAT3-dependent genes was run for four conditions including control, EGF (25 ng/mL), EGF+SIM-1 (10 nM) and EGF+SIM-2 (10 nM). The resultant Ct value was normalized with four different housekeeping genes, and then summarized with a heatmap analyses drawn in Morpheus server of Broad Institute. […] (C) The cloning of STAT3 response element of IL6 promoter upstream of GFP reporter was performed by GeneCopoea genome editing service (Rockville, MD). The bit score map and sequence of consensus STAT3 response element or SEQ ID NO: 2 was shown below. EGFP reporter assay was performed in EGF-induced (20 ng/mL) MDA-MB-468 after treatments of increasing doses of (D) SIM-1 and (E) SIM-2 for 5 hrs. Briefly, MDA-MB-468 cells were transfected with the plasmid for 24 hrs using Lipofectamine transfection strategy followed by the treatment with EGF (20 ng/mL) alone and together with increasing doses SIM-1 and SIM-2 for additional 5 hrs. After that live cells were recorded at Ex:Em=485/535 nm wavelength for GFP activity. (F) The scrambled STAT3 response element in IL6 promoter or SEQ ID NO: 3 was also synthesized partnering with GeneCopoea. One-way ANOVA (treatment as effector) was adopted to test the significance between groups at **p<0.01, #p<0.005, and *p<0.05. (G) The GFP reporter activity was measured where the scrambled gene was cloned upstream of eGFP reporter. Results are mean±SD of three different experiments Ns=no significance. (H) Realtime PCR analyses of IL6 was performed in MDA-MB-468 cells maintained under control, EGF (25 ng/mL), EGF+SIM-1(20 nM), and EGF+SIM-2 (20 nM) conditions for 5 hrs. (I) ELISA analysis of IL6 was performed after 48 hrs in MDA-MB-468 cells kept under similar treatment conditions. (J) Realtime PCR (5 hrs post-treatment) and (K) ELISA analyses of RANTES (48 hrs post treatment) were performed under similar condition. Results are mean±SD of three different experiments. One-way ANOVA (treatment as effector) was adopted to test the significance between groups at ***p<0.001, **p<0.01, and *p<0.05.
GFP reporter assay. To assay the transcriptional activities of STAT3, cells at 75% confluence were transfected by 0.1 μg of pEZX-PF02 plasmid cloned with STAT3 response element of IL6 promoter upstream of eGFP reporter. The transfection was done by Lipofectamine 3000™ reagent as per the manufacturer's protocol (Thermofisher). […] GFP reporter activities were analyzed in PerkinElmer VictorX3 plate reader at Ex:Em=485/535 nm.
Once recruited to the DNA, STAT3 controls the gene transcription. Therefore finally, an eGFP reporter assay was performed to evaluate if SIM-1 and SIM-2 inhibited the transcriptional activity of STAT3. An eGFP reporter cassette was cloned under the guidance of IL6 promoter carrying STAT response element (FIG. 10C), transfected in MDA-MB-468 cells, and then treated by EGF (20 ng/mL) along with different doses of SIM-1 and SIM-2.
In general terms: Reporter assays use an easily measured gene product as a stand-in for the process of interest.

The term IC50 denotes the concentration at which inhibition is half-maximal. In the case of `CCOC(=O)c1c(NC(C)=O)sc2c(Cl)c(/C=N/O)ccc12` [SIM-2, ethyl 2-acetamido-7-chloro-6-(hydroxyiminomethyl)-1-benzothiophene-3-carboxylate], the “EGF-induced GFP reporter activity” value was “dose-dependently inhibited”, the IC50 was around 20 nM and the “lowest concentration inhibiting STAT3 activation (eGFP reporter)” value was determined as 5 nM.
The corresponding values for `O=C(O)CCC(=O)NCc1csc2ccc(Cl)cc12` [SIM-1, 4-[(5-chloro-1-benzothiophen-3-yl)methylamino]-4-oxobutanoic acid] are “dose-dependently inhibited”, around 20 nM and 5 nM.
